One data set is described as follows: Acute toxicity. Conditions: oral, 300 mg/kg, 3 male ddy mice (5 weeks old), observed one week. The class given is in vivo. As to the method:
Each of the compounds prepared as described in Examples 2, 7 and 15 was separately administered orally in a dose of 300 mg/kg to each of a group of 3 male ddy mice (5 weeks old).

In data set [1] the test system is blood platelet (PAF-induced aggregation). The data set can be described thus: Inhibitory effect in vitro against PAF-induced blood platelet aggregation. The class given is cell-based. Conditions: Oryctolagus cuniculus, 5 min; rabbit platelet rich plasma; l-C16:0 PAF final 10^-8 ~3×10^-8 M; 5 min observation. The method, then:
Inhibitory effect in vitro against PAF-induced blood platelet aggregation
Blood samples were drawn from a rabbit and one part by volume of each sample was immediately mixed with 1/9 part of a 3.8% w/v aqueous solution of sodium citrate. The samples were centrifuged at 150×G at room temperature for 15 minutes to obtain a platelet rich plasma (PRP) fraction from the upper layer. The remains were further centrifuged at 1,000×G for 15 minutes to obtain a platelet poor plasma (PPP) fraction from the upper layer. The PRP and PPP fractions were mixed appropriately, to obtain a sample in which the final count of blood platelets was adjusted to be 6×10^5 per ul. According to the method reported by Born et al. [G. V. R. Born et al.: J. Physiol. 62, 67-68 (1962)], blood platelet aggregation was determined by an increase in light transmission measured using an aggregometer. 3 ul of a solution of the test compound in dimethyl sulfoxide were added to 272 ul of PRP, and, after 1 minute, 25 ul of a physiological saline solution containing l-c16:0 PAF (at a final concentration of 10^-8 ~3×10^-8 M) were added. […] At the end of this value and the value of PAF-induced aggregation which was observed when dimethyl sulfoxide only was used without the addition of any test compound. IC50 values were calculated from the dose-response curve.

The subject of another data set is PAF-induced hypotension. The data set can be described thus: Inhibition of PAF-induced hypotension. The class given is in vivo, Wistar-Imamichi rats. The conditions noted are these: Rattus norvegicus, iv, 1 min; anesthetized rats; l-C16:0 PAF 10 ng/kg i.v.; test compound i.v. cumulatively, 1 min before PAF; read-out: Inhibitory effect ID50. The method, then:
Inhibition of PAF-induced hypotension
The test animals used were Wistar-Imamichi rats, each weighing from 350 to 450 g, anesthetized with Inactin (90 mg/kd, intraperitoneally).
Blood pressure was continuously measured throughout the experiment through a cannula inserted into the femoral artery. Each drug sample to be tested was intravenously injected through a cannula inserted into the femoral vein.
At first, l-C16:0 PAF was injected intravenously in amounts of 10 ng/kg at each injection at intervals of 5 minutes until the degree of the hypotensive response became constant. Then, each drug sample to be treated was intravenously injected. After one minute, the same dose of PAF was administered again. The drug sample was cumulatively administered. From its inhibition rate against the PAF-induced hypotensive effect, the 50% inhibitive dose (ID50) was determined, and is regarded as an index of PAF-antagonist activity. For administration, the PAF was dissolved in physiological saline solution containing 0.25% w/v of bovine serum albumin (BSA). The compounds under test were dissolved in dimethylformamide for use.
CV-3988 is disclosed in U.S. Pat. No. 4,408,052, and is structurally related to PAF itself.
In this Table, the compounds of the invention are identified by the number of the foregoing Example in which they were prepared.

In a further data set the target is T1, PAF-receptor (Oryctolagus cuniculus, UniProt G1TEI7).
T1 construct: is regarded as a PAF-receptor membrane fraction; from tissue; host or cells: rabbit blood platelets (membrane fraction from sucrose density layers)
T1 sequence (G1TEI7 1-342): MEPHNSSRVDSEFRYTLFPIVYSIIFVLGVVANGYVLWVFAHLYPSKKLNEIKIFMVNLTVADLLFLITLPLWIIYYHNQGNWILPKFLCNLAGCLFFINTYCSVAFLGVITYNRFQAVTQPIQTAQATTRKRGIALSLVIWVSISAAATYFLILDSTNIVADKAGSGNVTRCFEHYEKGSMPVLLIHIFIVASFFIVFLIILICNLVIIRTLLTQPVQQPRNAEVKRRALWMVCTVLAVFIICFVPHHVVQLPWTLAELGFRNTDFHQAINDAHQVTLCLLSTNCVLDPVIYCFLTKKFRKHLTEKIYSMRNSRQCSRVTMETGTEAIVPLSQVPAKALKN
Description: Inhibitor effect on PAF-receptor binding. Conditions: specific binding of ^3H-PAF; rabbit platelet PAF-receptor membrane fraction; read-out: Inhibition of receptor binding (IC50 M). An excerpt: Inhibitor effect on PAF-receptor binding
Blood samples were drawn from the heart of a rabbit. 1 part by volume of each sample was mixed immediately with 1/9 part of 0.77M solution of disodium ethylenediaminetetraacetate. After a similar procedure to that described in Experiment 2, a precipitated blood platelet sample was obtained. This blood platelet sample was washed, and, after repeated freezing and thawing for cellular breakdown, it was laid on top of double layers consisting of […] and 1.5M sucrose solutions. By centrifugation at 63,500×G, for 2 hours at 4° C., the fraction obtained from the interface between the 0.25M and 1.5M sucrose solutions was collected and is regarded as a PAF-receptor membrane fraction. A receptor binding experiment was conducted according to a method very similar to that reported by Hwang et al. [San-Bao Hwang et al.: J. Biol. Chem. 260, 15639-15645 (1985)]. The specific binding of ^3 H-PAF was measured using a Wattman GF/C filter. A test compound was dissolved in dimethyl sulfoxide and diluted 100 fold with a buffer solution containing 0.5% bovine serum albumin. Nine parts by weight of the solution, for a receptor binding experiment, was mixed with one part of the test compound solution prepared above. The percent inhibition of the specific binding was plotted for a log concentration of the test compound, and the 50% inhibitory concentration (IC50) was calculated from the linear line connecting all the plotted points.

What is called IC50 is the concentration that gives 50% inhibition. In the case of `COc1ccc(C(=CC(=O)N2CCN(C(=O)c3cc(OC)c(OC)c(OC)c3)CC2)c2ccc(OC)cc2)cc1` [Example 2, 1-[3,3-Bis(4-methoxyphenyl)acryloyl]-4-(3,4,5-trimethoxybenzoyl)piperazine], in “Acute toxicity”, the “Acute toxicity (survival)” value was “all mice survived”. For the same molecule, the midpoint of inhibition in data set [1], the IC50, lay at 200 nM. In addition, in the data set on PAF-induced hypotension, the ED50 amounted to 0.039 mg/kg.

As to `COc1ccc(/C(=C/C(=O)N2CCN(C(=O)c3cc(OC)c(OC)c(OC)c3)CC2)c2cc(Cl)cc(Cl)c2)cc1` [Example 77, 1-[(Z)-3-(4-Methoxyphenyl)-3-(3,5-dichlorophenyl)acryloyl]-4-(3,4,5-trimethoxybenzoyl)piperazine], the IC50 amounted to 14 nM at PAF-receptor and 26 nM in data set [1]. Also, the ED50 in the data set with PAF-induced hypotension amounted to 0.0037 mg/kg.

As for `COc1ccc(/C(=C/C(=O)N2CCN(C(=O)c3cc(OC)c(OC)c(OC)c3)CC2)c2cc(F)cc(F)c2)cc1` [Example 87, 1-[(Z)-3-(4-Methoxyphenyl)-3-(3,5-difluorophenyl)acryloyl]-4-(3,4,5-trimethoxybenzoyl)piperazine], the IC50 came to 76 nM at PAF-receptor and 65 nM in data set [1]. In addition, in the data set with PAF-induced hypotension, the ED50 was found to be 0.011 mg/kg.

Regarding `CCCOc1ccc(/C(=C/C(=O)N2CCN(C(=O)c3cc(OC)c(OC)c(OC)c3)CC2)c2ccc(Cl)c(Cl)c2)cc1` [Example 49, 1-[(Z)-3-(3,4-Dichlorophenyl)-3-(4-propoxyphenyl)acryloyl]-4-(3,4,5-trimethoxybenzoyl)piperazine], the IC50 at PAF-receptor was determined as 21 nM; in data set [1], 66 nM. Also, the ED50 in the data set with PAF-induced hypotension turned out to be 0.008 mg/kg.

Regarding `COc1cc(C(=O)N2CCN(C(=O)/C=C(/c3ccccc3)c3cccs3)CC2)cc(OC)c1OC` [Example 5, 1-[(Z)-3-Phenyl-3-(2-thienyl)acryloyl]-4-(3,4,5-trimethoxybenzoyl)piperazin], the concentration for half-maximal inhibition (IC50) on PAF-receptor came to 47 nM; in data set [1], 260 nM. In addition, in the data set with PAF-induced hypotension, the ED50 came to 0.054 mg/kg.

For `COc1ccc(/C(=C/C(=O)N2CCN(C(=O)c3cc(OC)c(OC)c(OC)c3)CC2)c2ccccc2)cc1OC` [Example 7, 1-[(E)-3-(3,4-Dimethoxyphenyl)cinnamoyl]-4-(3,4,5-trimethoxybenzoyl)piperazine], the “Acute toxicity (survival)” value in “Acute toxicity” is on record as “all mice survived”. Moreover, the ED50 in the data set with PAF-induced hypotension came to 0.014 mg/kg.

As to `COc1ccc(/C(=C/C(=O)N2CCN(C(=O)c3cc(OC)c(OC)c(OC)c3)CC2)c2cccc(C(F)(F)F)c2)cc1` [Example 75, 1-[(Z)-3-(4-Methoxyphenyl)-3-(3-trifluoromethylphenyl)acryloyl]-4-(3,4,5-trimethoxybenzoyl)piperazine], the IC50 amounted to 23 nM at PAF-receptor and 99 nM in data set [1]. Moreover, in the data set on PAF-induced hypotension, the ED50 is 0.0051 mg/kg.

Consider `COc1ccc(/C(=C/C(=O)N2CCN(C(=O)c3cc(OC)c(OC)c(OC)c3)CC2)c2ccc(Cl)cc2)cc1OC` [Example 15, 1-[(E)-3-(4-Chlorophenyl)-3-(3,4-dimethoxyphenyl)acryloyl]-4-(3,4,5-trimethoxybenzoyl)piperazine], for which the “Acute toxicity (survival)” value in “Acute toxicity” was “all mice survived”. Further, the IC50 on PAF-receptor is 43 nM; in data set [1], 68 nM. In addition, in the data set on PAF-induced hypotension, the ED50 turned out to be 0.022 mg/kg.

For the molecule `COc1ccc(/C(=C/C(=O)N2CCN(C(=O)c3cc(OC)c(OC)c(OC)c3)CC2)c2cccc(Cl)c2)cc1` [Example 45, 1-[(Z)-3-(3-Chlorophenyl)-3-(4-methoxyphenyl)acryloyl]-4-(3,4,5-trimethoxybenzoyl)piperazine], the 50% inhibitory concentration (IC50) on PAF-receptor worked out at 16 nM; in data set [1], 39 nM. The ED50 in the data set with PAF-induced hypotension worked out at 0.0066 mg/kg.
